Source: patent US8192962B2, “Processes for detecting toxic substances” (Daikin Industries, Ltd., priority 2001, dated 2012)

Test system: Metabolism protein genes
Experiment: DNA chip mRNA expression in yeast, metabolism protein genes (Table 7)
Format: cell-based, Saccharomyces cerevisiae S288C
Summary of the method: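 Ratios compare mRNA levels in stressed and control S. cerevisiae. Each toxicant was applied for two hours to log-phase cultures at 25° C. at a sub-lethal, growth-inhibiting level; fluorescent cDNA (Cy3- or Cy5-dUTP) was hybridized to a genome-wide yeast chip for over 12 h at 65° C.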

## manganese ethylenebis(dithiocarbamate) [(8)]
Yeast gene YJR155W
  The level of expressed mRNA in the presence of chemical substance/The level of expressed mRNA in the absence of chemical substance: 10.6
Yeast gene YKL035W
  The level of expressed mRNA in the presence of chemical substance/The level of expressed mRNA in the absence of chemical substance: 1.0
Yeast gene YKL060C
  level of expressed mRNA in the presence/in the absence of chemical substance: 1.1
Yeast gene YKL091C
  The level of expressed mRNA in the presence of chemical substance/The level of expressed mRNA in the absence of chemical substance: 1.3
Yeast gene YKL104C
  The level of expressed mRNA in the presence of chemical substance/The level of expressed mRNA in the absence of chemical substance: 1.1
Yeast gene YKL148C
  level of expressed mRNA in the presence/in the absence of chemical substance: 0.8
Yeast gene YKL152C
  The level of expressed mRNA in the presence of chemical substance/The level of expressed mRNA in the absence of chemical substance: 1.0
Yeast gene YKL157W
  level of expressed mRNA in the presence/in the absence of chemical substance: 1.1
Yeast gene YKL213C
  The level of expressed mRNA in the presence of chemical substance/The level of expressed mRNA in the absence of chemical substance: 1.1
Yeast gene YKL215C
  The level of expressed mRNA in the presence of chemical substance/The level of expressed mRNA in the absence of chemical substance: 1.1
Yeast gene YKR034W
  level of expressed mRNA in the presence/in the absence of chemical substance: 1.5
Yeast gene YLL058W
  The level of expressed mRNA in the presence of chemical substance/The level of expressed mRNA in the absence of chemical substance: 0.9
Yeast gene YLR006C
  level of expressed mRNA in the presence/in the absence of chemical substance: 0.9
Yeast gene YLR044C
  level of expressed mRNA in the presence/in the absence of chemical substance: 0.7
Yeast gene YLR056W
  level of expressed mRNA in the presence/in the absence of chemical substance: 0.9
Yeast gene YLR058C
  level of expressed mRNA in the presence/in the absence of chemical substance: 0.3
Yeast gene YLR081W
  level of expressed mRNA in the presence/in the absence of chemical substance: 0.9
Yeast gene YLR089C
  level of expressed mRNA in the presence/in the absence of chemical substance: 0.7
Yeast gene YLR180W
  The level of expressed mRNA in the presence of chemical substance/The level of expressed mRNA in the absence of chemical substance: 0.9
Yeast gene YLR273C
  The level of expressed mRNA in the presence of chemical substance/The level of expressed mRNA in the absence of chemical substance: 1.3
Yeast gene YLR284C
  level of expressed mRNA in the presence/in the absence of chemical substance: 1.2
Yeast gene YLR299W
  The level of expressed mRNA in the presence of chemical substance/The level of expressed mRNA in the absence of chemical substance: 1.0
Yeast gene YLR300W
  The level of expressed mRNA in the presence of chemical substance/The level of expressed mRNA in the absence of chemical substance: 0.8
Yeast gene YLR304C
  level of expressed mRNA in the presence/in the absence of chemical substance: 0.6
Yeast gene YLR307W
  The level of expressed mRNA in the presence of chemical substance/The level of expressed mRNA in the absence of chemical substance: 1.2
Yeast gene YLR348C
  The level of expressed mRNA in the presence of chemical substance/The level of expressed mRNA in the absence of chemical substance: 0.9
Yeast gene YLR354C
  level of expressed mRNA in the presence/in the absence of chemical substance: 1.4
Yeast gene YLR372W
  level of expressed mRNA in the presence/in the absence of chemical substance: 0.9
Yeast gene YML022W
  level of expressed mRNA in the presence/in the absence of chemical substance: 1.1
Yeast gene YML054C
  The level of expressed mRNA in the presence of chemical substance/The level of expressed mRNA in the absence of chemical substance: 1.5
Yeast gene YML070W
  The level of expressed mRNA in the presence of chemical substance/The level of expressed mRNA in the absence of chemical substance: 1.3
Yeast gene YML100W
  The level of expressed mRNA in the presence of chemical substance/The level of expressed mRNA in the absence of chemical substance: 0.7
Yeast gene YMR008C
  The level of expressed mRNA in the presence of chemical substance/The level of expressed mRNA in the absence of chemical substance: 0.5
Yeast gene YMR011W
  level of expressed mRNA in the presence/in the absence of chemical substance: 1.1
Yeast gene YMR015C
  level of expressed mRNA in the presence/in the absence of chemical substance: 0.7
Yeast gene YMR020W
  The level of expressed mRNA in the presence of chemical substance/The level of expressed mRNA in the absence of chemical substance: 1.2
Yeast gene YMR083W
  level of expressed mRNA in the presence/in the absence of chemical substance: 1.1
Yeast gene YMR105C
  The level of expressed mRNA in the presence of chemical substance/The level of expressed mRNA in the absence of chemical substance: 1.1
Yeast gene YMR189W
  The level of expressed mRNA in the presence of chemical substance/The level of expressed mRNA in the absence of chemical substance: 0.4
Yeast gene YMR205C
  level of expressed mRNA in the presence/in the absence of chemical substance: 0.7
Yeast gene YMR261C
  level of expressed mRNA in the presence/in the absence of chemical substance: 0.7
Yeast gene YMR271C
  The level of expressed mRNA in the presence of chemical substance/The level of expressed mRNA in the absence of chemical substance: 1.8
Yeast gene YMR296C
  The level of expressed mRNA in the presence of chemical substance/The level of expressed mRNA in the absence of chemical substance: 0.5
Yeast gene YMR323W
  level of expressed mRNA in the presence/in the absence of chemical substance: 0.8
Yeast gene YNL012W
  The level of expressed mRNA in the presence of chemical substance/The level of expressed mRNA in the absence of chemical substance: 1.8
Yeast gene YNL025C
  level of expressed mRNA in the presence/in the absence of chemical substance: 1.0
Yeast gene YNL045W
  The level of expressed mRNA in the presence of chemical substance/The level of expressed mRNA in the absence of chemical substance: 0.7
Yeast gene YNL104C
  The level of expressed mRNA in the presence of chemical substance/The level of expressed mRNA in the absence of chemical substance: 0.9
Yeast gene YNL106C
  The level of expressed mRNA in the presence of chemical substance/The level of expressed mRNA in the absence of chemical substance: 0.8
Yeast gene YNL169C
  The level of expressed mRNA in the presence of chemical substance/The level of expressed mRNA in the absence of chemical substance: 0.8
Yeast gene YNL192W
  level of expressed mRNA in the presence/in the absence of chemical substance: 0.8
Yeast gene YNL231C
  The level of expressed mRNA in the presence of chemical substance/The level of expressed mRNA in the absence of chemical substance: 1.5
Yeast gene YNL322C
  The level of expressed mRNA in the presence of chemical substance/The level of expressed mRNA in the absence of chemical substance: 0.7
Yeast gene YNL331C
  The level of expressed mRNA in the presence of chemical substance/The level of expressed mRNA in the absence of chemical substance: 13.1
Yeast gene YNL332W
  The level of expressed mRNA in the presence of chemical substance/The level of expressed mRNA in the absence of chemical substance: 1.5
Yeast gene YNR019W
  The level of expressed mRNA in the presence of chemical substance/The level of expressed mRNA in the absence of chemical substance: 0.7
Yeast gene YNR033W
  The level of expressed mRNA in the presence of chemical substance/The level of expressed mRNA in the absence of chemical substance: 1.1
Yeast gene YNR059W
  The level of expressed mRNA in the presence of chemical substance/The level of expressed mRNA in the absence of chemical substance: 1.3
Yeast gene YOL058W
  The level of expressed mRNA in the presence of chemical substance/The level of expressed mRNA in the absence of chemical substance: 1.6
Yeast gene YOL086C
  level of expressed mRNA in the presence/in the absence of chemical substance: 0.8
Yeast gene YOL108C
  level of expressed mRNA in the presence/in the absence of chemical substance: 1.3
Yeast gene YOL116W
  level of expressed mRNA in the presence/in the absence of chemical substance: 1.3
Yeast gene YOL126C
  The level of expressed mRNA in the presence of chemical substance/The level of expressed mRNA in the absence of chemical substance: 0.9
Yeast gene YOL153C
  The level of expressed mRNA in the presence of chemical substance/The level of expressed mRNA in the absence of chemical substance: 1.0
Yeast gene YOL156W
  level of expressed mRNA in the presence/in the absence of chemical substance: 1.0
Yeast gene YOL165C
  The level of expressed mRNA in the presence of chemical substance/The level of expressed mRNA in the absence of chemical substance: 17.8
Yeast gene YOR002W
  level of expressed mRNA in the presence/in the absence of chemical substance: 0.9
Yeast gene YOR085W
  level of expressed mRNA in the presence/in the absence of chemical substance: 0.7
Yeast gene YOR099W
  The level of expressed mRNA in the presence of chemical substance/The level of expressed mRNA in the absence of chemical substance: 0.9
Yeast gene YOR103C
  level of expressed mRNA in the presence/in the absence of chemical substance: 1.0
Yeast gene YOR108W
  level of expressed mRNA in the presence/in the absence of chemical substance: 0.9
Yeast gene YOR128C
  level of expressed mRNA in the presence/in the absence of chemical substance: 0.6
Yeast gene YOR130C
  The level of expressed mRNA in the presence of chemical substance/The level of expressed mRNA in the absence of chemical substance: 0.8
Yeast gene YOR142W
  level of expressed mRNA in the presence/in the absence of chemical substance: 0.8
Yeast gene YOR176W
  level of expressed mRNA in the presence/in the absence of chemical substance: 1.0
Yeast gene YOR178C
  level of expressed mRNA in the presence/in the absence of chemical substance: 0.9
Yeast gene YOR251C
  level of expressed mRNA in the presence/in the absence of chemical substance: 1.1
Yeast gene YOR336W
  The level of expressed mRNA in the presence of chemical substance/The level of expressed mRNA in the absence of chemical substance: 0.8
Yeast gene YOR347C
  The level of expressed mRNA in the presence of chemical substance/The level of expressed mRNA in the absence of chemical substance: 0.8
Yeast gene YOR348C
  level of expressed mRNA in the presence/in the absence of chemical substance: 0.8
Yeast gene YPL017C
  The level of expressed mRNA in the presence of chemical substance/The level of expressed mRNA in the absence of chemical substance: 1.3
Yeast gene YPL028W
  level of expressed mRNA in the presence/in the absence of chemical substance: 0.9
Yeast gene YPL057C
  level of expressed mRNA in the presence/in the absence of chemical substance: 1.0
Yeast gene YPL135W
  level of expressed mRNA in the presence/in the absence of chemical substance: 1.0
Yeast gene YPL148C
  level of expressed mRNA in the presence/in the absence of chemical substance: 0.9
Yeast gene YPR026W
  The level of expressed mRNA in the presence of chemical substance/The level of expressed mRNA in the absence of chemical substance: 1.0
Yeast gene YPR113W
  level of expressed mRNA in the presence/in the absence of chemical substance: 0.9
Yeast gene YPR165W
  level of expressed mRNA in the presence/in the absence of chemical substance: 1.0
Yeast gene YPR167C
  The level of expressed mRNA in the presence of chemical substance/The level of expressed mRNA in the absence of chemical substance: 5.5
Yeast gene YPR183W
  level of expressed mRNA in the presence/in the absence of chemical substance: 1.0
